Drawing on article PMC5540273, “Progress towards a public chemogenomic set for protein kinases and a call for contributions” (PLoS ONE, 2017), this text covers inhibition for five molecules.

Assay in all cases: KINOMEscan competition binding
For one experiment, the target named is T1, ADCK4 (Homo sapiens, UniProt Q96D53).
T1 sequence (Q96D53 1-544): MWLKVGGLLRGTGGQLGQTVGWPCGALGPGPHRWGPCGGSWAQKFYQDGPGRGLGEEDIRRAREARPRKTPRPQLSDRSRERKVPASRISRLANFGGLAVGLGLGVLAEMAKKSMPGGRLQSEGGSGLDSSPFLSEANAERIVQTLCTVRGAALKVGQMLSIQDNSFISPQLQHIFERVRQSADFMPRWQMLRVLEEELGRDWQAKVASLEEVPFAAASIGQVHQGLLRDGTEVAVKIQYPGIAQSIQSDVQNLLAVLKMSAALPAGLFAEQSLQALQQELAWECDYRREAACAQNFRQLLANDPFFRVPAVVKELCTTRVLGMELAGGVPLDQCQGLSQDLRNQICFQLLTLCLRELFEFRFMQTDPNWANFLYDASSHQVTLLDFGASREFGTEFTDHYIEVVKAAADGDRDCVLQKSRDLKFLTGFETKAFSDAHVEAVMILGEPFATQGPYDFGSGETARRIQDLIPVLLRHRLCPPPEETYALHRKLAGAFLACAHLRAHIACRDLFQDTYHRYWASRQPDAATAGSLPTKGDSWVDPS
The conditions noted are these: read-out: %Inh ADCK4.

The next experiment concerns the target AKT3 (Homo sapiens, UniProt Q9Y243). The note with it: read-out: %Inh AKT3.
A further experiment deals with CAMK2A (Homo sapiens, UniProt Q9UQM7). The note with it: read-out: %Inh CAMK2A.
In the next experiment the target is T2, CHEK1 (Homo sapiens, UniProt O14757).
T2 sequence (O14757 1-476): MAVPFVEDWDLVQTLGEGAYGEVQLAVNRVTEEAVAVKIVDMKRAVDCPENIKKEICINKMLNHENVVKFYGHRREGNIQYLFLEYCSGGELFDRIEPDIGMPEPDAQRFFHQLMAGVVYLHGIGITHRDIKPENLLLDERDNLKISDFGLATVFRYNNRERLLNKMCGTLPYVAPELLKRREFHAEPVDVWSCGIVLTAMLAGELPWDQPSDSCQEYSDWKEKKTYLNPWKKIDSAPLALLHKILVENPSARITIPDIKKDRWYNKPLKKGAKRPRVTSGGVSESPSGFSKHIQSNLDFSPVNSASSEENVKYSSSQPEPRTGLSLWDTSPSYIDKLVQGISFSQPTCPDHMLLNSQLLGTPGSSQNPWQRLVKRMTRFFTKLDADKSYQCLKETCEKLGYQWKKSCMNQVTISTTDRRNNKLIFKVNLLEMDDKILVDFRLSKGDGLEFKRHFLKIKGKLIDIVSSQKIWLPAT
The conditions noted are these: read-out: %Inh CHEK1.

The target of another experiment is CLK1 (Homo sapiens, UniProt P49759). The note with it: read-out: %Inh CLK1.
The target of a further experiment is CSNK1A1 (Homo sapiens, UniProt P48729). The note with it: read-out: %Inh CSNK1A1.
The target of the next experiment is T3, DRAK1 (Homo sapiens, UniProt Q9UEE5).
T3 sequence (Q9UEE5 1-414): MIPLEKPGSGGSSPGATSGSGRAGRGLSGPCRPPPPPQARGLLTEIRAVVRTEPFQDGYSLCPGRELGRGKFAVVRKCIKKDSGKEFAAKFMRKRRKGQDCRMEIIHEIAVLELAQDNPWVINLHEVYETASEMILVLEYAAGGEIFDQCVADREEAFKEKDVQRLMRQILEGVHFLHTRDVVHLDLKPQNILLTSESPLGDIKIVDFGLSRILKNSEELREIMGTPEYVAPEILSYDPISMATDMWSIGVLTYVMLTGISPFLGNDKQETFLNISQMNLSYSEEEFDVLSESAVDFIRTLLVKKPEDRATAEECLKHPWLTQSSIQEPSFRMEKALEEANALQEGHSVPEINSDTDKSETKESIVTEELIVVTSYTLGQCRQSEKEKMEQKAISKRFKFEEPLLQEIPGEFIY
The conditions noted are these: read-out: %Inh DRAK1.

Another experiment has as its target T4, DYRK2 (Homo sapiens, UniProt Q92630).
T4 sequence (Q92630 1-601): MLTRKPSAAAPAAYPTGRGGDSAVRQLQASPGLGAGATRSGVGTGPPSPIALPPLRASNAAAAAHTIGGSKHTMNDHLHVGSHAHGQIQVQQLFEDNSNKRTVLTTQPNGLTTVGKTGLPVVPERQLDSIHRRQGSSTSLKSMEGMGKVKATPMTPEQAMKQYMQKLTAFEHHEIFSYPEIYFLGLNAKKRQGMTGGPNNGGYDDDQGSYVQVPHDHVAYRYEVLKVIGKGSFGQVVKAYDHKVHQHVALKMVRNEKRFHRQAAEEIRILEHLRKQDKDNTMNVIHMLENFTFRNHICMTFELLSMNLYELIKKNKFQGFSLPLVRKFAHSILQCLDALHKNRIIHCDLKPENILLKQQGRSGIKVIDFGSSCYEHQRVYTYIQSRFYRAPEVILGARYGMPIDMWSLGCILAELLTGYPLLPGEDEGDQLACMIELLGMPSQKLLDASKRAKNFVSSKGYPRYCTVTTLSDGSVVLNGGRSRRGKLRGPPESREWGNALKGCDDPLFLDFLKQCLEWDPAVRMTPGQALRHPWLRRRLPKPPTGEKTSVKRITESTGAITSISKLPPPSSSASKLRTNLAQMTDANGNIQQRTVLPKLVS
The conditions noted are these: read-out: %Inh DYRK2.

The target in another experiment is EPHA2 (Homo sapiens, UniProt P29317). The note with it: read-out: %Inh EPHA2.
A further experiment concerns the target IRAK1 (Homo sapiens, UniProt P51617). The conditions noted are these: read-out: %Inh IRAK1.

Chain of AKT3 (Q9Y243 whole entry): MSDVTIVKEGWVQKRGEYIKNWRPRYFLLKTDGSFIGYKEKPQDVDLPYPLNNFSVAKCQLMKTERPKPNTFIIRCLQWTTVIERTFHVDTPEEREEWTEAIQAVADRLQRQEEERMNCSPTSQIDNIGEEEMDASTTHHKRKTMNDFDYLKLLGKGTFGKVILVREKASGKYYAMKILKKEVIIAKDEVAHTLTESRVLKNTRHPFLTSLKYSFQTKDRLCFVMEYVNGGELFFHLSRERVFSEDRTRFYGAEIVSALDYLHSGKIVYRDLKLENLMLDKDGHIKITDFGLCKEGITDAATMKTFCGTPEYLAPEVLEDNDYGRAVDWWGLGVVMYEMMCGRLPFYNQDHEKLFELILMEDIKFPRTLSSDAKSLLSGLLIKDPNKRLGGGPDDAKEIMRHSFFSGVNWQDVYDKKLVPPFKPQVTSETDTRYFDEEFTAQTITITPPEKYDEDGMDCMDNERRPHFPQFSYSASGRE
Chain of CSNK1A1 (P48729 whole entry): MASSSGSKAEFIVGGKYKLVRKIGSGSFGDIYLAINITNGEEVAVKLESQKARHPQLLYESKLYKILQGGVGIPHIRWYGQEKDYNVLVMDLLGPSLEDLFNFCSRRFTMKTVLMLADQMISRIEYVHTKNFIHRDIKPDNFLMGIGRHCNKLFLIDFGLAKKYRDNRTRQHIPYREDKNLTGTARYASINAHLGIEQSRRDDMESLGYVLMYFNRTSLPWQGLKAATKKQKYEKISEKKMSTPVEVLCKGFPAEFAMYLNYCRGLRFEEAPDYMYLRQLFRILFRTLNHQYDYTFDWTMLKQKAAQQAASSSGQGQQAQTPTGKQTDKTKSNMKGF
Chain of CLK1 (P49759 whole entry): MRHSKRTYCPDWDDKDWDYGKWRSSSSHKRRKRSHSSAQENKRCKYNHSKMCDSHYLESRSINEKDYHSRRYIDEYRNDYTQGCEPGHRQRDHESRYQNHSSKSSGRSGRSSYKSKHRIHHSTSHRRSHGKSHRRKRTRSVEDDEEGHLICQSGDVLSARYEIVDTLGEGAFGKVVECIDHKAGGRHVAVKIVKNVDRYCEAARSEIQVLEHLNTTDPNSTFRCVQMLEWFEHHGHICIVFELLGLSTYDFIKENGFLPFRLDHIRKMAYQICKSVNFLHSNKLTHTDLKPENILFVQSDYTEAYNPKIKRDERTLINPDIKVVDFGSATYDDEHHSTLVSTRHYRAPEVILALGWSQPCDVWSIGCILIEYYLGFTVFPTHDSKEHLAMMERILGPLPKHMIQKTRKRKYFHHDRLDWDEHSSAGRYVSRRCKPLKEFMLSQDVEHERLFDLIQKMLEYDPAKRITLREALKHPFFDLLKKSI
Chain of EPHA2 (P29317 24-976): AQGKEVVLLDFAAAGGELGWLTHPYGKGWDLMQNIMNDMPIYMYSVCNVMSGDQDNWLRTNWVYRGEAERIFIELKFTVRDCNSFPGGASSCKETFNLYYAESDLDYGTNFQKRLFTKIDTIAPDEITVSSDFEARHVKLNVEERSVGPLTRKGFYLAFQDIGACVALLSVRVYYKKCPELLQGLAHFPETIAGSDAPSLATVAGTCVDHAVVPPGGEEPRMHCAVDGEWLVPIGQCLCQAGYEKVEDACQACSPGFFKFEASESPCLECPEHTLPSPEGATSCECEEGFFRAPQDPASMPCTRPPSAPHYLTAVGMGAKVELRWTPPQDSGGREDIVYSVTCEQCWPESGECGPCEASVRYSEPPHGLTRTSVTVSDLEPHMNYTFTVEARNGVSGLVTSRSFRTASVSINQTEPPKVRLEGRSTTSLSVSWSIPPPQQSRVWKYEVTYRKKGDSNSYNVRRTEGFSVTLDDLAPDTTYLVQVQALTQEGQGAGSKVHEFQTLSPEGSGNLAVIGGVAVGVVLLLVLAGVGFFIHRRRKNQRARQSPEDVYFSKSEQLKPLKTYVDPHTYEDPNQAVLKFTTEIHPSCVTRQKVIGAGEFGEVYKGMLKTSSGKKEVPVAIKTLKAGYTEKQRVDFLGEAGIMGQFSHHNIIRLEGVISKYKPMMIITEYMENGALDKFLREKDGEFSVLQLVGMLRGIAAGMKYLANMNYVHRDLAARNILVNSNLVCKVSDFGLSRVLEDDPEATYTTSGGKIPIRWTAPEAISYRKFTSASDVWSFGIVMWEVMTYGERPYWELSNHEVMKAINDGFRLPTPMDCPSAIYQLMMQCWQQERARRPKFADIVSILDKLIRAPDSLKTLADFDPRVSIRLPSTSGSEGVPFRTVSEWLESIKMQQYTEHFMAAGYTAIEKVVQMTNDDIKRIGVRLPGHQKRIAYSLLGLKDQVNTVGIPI
Chain of IRAK1 (P51617 whole entry): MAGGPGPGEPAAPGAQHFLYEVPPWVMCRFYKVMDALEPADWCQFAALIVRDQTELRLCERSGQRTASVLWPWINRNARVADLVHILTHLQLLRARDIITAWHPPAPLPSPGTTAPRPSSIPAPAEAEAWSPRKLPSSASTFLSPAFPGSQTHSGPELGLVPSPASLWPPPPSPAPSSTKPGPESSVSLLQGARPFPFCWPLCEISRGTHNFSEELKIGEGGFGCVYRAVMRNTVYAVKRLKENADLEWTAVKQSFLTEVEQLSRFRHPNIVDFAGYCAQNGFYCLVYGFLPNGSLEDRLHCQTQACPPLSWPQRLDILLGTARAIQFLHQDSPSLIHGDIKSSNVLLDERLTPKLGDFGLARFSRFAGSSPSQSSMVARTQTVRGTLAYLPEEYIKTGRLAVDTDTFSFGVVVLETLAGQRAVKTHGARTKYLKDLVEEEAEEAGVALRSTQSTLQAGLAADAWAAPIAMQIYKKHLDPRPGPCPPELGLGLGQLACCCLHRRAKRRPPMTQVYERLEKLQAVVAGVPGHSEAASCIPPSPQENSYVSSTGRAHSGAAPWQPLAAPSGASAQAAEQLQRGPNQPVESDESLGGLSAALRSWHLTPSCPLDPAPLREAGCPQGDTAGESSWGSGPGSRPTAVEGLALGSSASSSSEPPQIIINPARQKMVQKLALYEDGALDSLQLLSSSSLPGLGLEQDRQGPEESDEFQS
Chain of CAMK2A (Q9UQM7 whole entry): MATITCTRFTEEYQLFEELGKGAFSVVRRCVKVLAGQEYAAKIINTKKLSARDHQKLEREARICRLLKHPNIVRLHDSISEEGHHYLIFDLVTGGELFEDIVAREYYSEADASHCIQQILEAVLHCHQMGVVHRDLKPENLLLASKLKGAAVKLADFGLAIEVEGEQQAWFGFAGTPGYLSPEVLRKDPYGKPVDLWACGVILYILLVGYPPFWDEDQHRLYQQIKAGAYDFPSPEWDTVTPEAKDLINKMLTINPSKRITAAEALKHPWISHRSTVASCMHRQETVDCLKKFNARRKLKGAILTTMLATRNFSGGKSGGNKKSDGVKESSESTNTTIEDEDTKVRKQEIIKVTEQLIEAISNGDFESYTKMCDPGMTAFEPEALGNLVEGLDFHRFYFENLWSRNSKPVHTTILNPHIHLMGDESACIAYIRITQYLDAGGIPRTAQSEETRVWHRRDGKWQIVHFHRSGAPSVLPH

As for `Cn1cc(-c2cnc(N)c3c(-c4ccc5c(c4)CCN5C(=O)Cc4ccccc4)csc23)cn1` [UNC10225012A], the inhibition at 1 µM was determined as 0% on ADCK4; 8% on AKT3; 29% on CAMK2A; 9% at CHEK1; 15% at CLK1; 21% on CSNK1A1. For the same molecule, the inhibition at 1 µM at DRAK1 amounted to 0%; on DYRK2 it was 8%; at EPHA2, 0%; at IRAK1 it was 0%.

With `CS(=O)(=O)Cc1ccc(Nc2nccc(-c3c(-c4cccc(NC(=O)C5CCCCC5)c4)nn4ncccc34)n2)cc1` [UNC10225159A], the inhibition at 1 µM was 0% at ADCK4; 0% at AKT3; 15% on CAMK2A; 12% on CHEK1; 10% at CLK1; 7% on CSNK1A1. Moreover, the inhibition at 1 µM at DRAK1 stood at 0%; on DYRK2, 5%; on EPHA2, 51%; at IRAK1 it was 24%.

As for `Cc1ccc(NC(=O)Nc2cccc(C(F)(F)F)c2)cc1` [UNC10225187A], the inhibition at 1 µM amounted to 0% at ADCK4; 0% on AKT3; 32% at CAMK2A; 5% at CHEK1; 3% at CLK1; 0% on CSNK1A1. For the same molecule, the inhibition at 1 µM at DRAK1 turned out to be 15%; at DYRK2 it was 0%; on EPHA2 it was 0%; at IRAK1, 0%.

Take `COc1cccc(OC)c1C(=O)Nc1cccc(-c2nn3ccccc3c2-c2ccnc(Nc3cccc(F)c3)n2)c1` [UNC10225310A]: the inhibition at 1 µM was 0% on ADCK4; 0% on AKT3; 27% on CAMK2A; 13% at CHEK1; 21% at CLK1; 25% at CSNK1A1. The inhibition at 1 µM on DRAK1 was found to be 12%; on DYRK2, 0%; at EPHA2 it was 11%; on IRAK1, 0%.

As to `O=c1cc(N2CCOCC2)nc2n(Cc3cccc(Cl)c3Cl)c(C3CC3)nn12` [UNC10225469A], the inhibition at 1 µM at ADCK4 was found to be 0%; at AKT3, 0%; at CAMK2A, 25%; on CHEK1 it was 15%; on CLK1, 27%; at CSNK1A1 it was 0%. In addition, the inhibition at 1 µM amounted to 11% at DRAK1, 1% at DYRK2, 0% at EPHA2 and 0% on IRAK1.
